In ChEMBL document CHEMBL5678818, “Discovery of potent SOS1 inhibitors that block RAS activation via disruption of the RAS-SOS1 interaction” (Proc Natl Acad Sci U S A, 2019):

Legend:
[1] = molecular target: Myosin light chain kinase 2, skeletal/cardiac muscle (Homo sapiens) (UniProt Q9H1R3); experiment: Inhibition of MYLK2 (unknown origin) assessed as residual activity at 1000 nM by KINOMEscan analysis relative to control
[2] = molecular target: Rho-associated protein kinase 2 (Homo sapiens) (UniProt O75116); experiment: Inhibition of ROCK2 (unknown origin) assessed as residual activity at 1000 nM by KINOMEscan analysis relative to control
[3] = molecular target: Receptor-type tyrosine-protein kinase FLT3 (Homo sapiens) (UniProt P36888); experiment: Inhibition of autoinhibited FLT3 (unknown origin) assessed as residual activity at 1000 nM by KINOMEscan analysis relative to control
[4] = system: Receptor-type tyrosine-protein kinase FLT3 (Homo sapiens), P36888 [D835Y]; experiment: Inhibition of FLT3 D835Y mutant (unknown origin) assessed as residual activity at 1000 nM by KINOMEscan analysis relative to control
[5] = molecular target: Casein kinase I isoform delta (Homo sapiens) (UniProt P48730); experiment: Inhibition of CSNK1D (unknown origin) assessed as residual activity at 1000 nM by KINOMEscan analysis relative to control
[6] = molecular target: T1, Serine/threonine-protein kinase RIO3 (Homo sapiens) (UniProt O14730); experiment: Inhibition of RIOK3 (unknown origin) assessed as residual activity at 1000 nM by KINOMEscan analysis relative to control
T1 sequence (whole entry): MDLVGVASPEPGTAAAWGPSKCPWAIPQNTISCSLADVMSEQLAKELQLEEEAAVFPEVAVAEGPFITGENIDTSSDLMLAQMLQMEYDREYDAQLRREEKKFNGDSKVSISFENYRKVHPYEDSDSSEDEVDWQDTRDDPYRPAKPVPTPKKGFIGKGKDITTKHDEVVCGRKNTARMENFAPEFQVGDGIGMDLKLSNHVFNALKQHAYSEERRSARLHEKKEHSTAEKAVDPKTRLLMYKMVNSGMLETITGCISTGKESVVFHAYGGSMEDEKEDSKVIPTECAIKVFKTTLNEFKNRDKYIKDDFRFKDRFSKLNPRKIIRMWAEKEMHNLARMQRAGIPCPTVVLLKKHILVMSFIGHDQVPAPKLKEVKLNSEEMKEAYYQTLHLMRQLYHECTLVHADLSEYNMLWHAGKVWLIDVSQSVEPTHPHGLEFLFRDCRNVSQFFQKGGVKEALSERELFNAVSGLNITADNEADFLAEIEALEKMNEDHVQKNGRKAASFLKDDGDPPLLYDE

[7] = molecular target: Serine/threonine-protein kinase N2 (Homo sapiens) (UniProt Q16513); experiment: Inhibition of PKN2 (unknown origin) assessed as residual activity at 1000 nM by KINOMEscan analysis relative to control
[8] = molecular target: Serine/threonine-protein kinase N1 (Homo sapiens) (UniProt Q16512); experiment: Inhibition of PKN1 (unknown origin) assessed as residual activity at 1000 nM by KINOMEscan analysis relative to control
[9] = molecular target: Protein kinase C eta type (Homo sapiens) (UniProt P24723); experiment: Inhibition of PRKCH (unknown origin) assessed as residual activity at 1000 nM by KINOMEscan analysis relative to control
[10] = system: Serine/threonine-protein kinase B-raf (Homo sapiens), P15056 [V600E]; experiment: Inhibition of BRAF V600E mutant (unknown origin) assessed as residual activity at 1000 nM by KINOMEscan analysis relative to control
[11] = molecular target: Tyrosine-protein kinase CSK (Homo sapiens) (UniProt P41240); experiment: Inhibition of CSK (unknown origin) assessed as residual activity at 1000 nM by KINOMEscan analysis relative to control
[12] = molecular target: RAC-beta serine/threonine-protein kinase (Homo sapiens) (UniProt P31751); experiment: Inhibition of AKT2 (unknown origin) assessed as residual activity at 1000 nM by KINOMEscan analysis relative to control
[13] = molecular target: Serine/threonine-protein kinase SIK1 (Homo sapiens) (UniProt P57059); experiment: Inhibition of SIK (unknown origin) assessed as residual activity at 1000 nM by KINOMEscan analysis relative to control
[14] = molecular target: Maternal embryonic leucine zipper kinase (Homo sapiens) (UniProt Q14680); experiment: Inhibition of MELK (unknown origin) assessed as residual activity at 1000 nM by KINOMEscan analysis relative to control
[15] = molecular target: TGF-beta receptor type-2 (Homo sapiens) (UniProt P37173); experiment: Inhibition of TGFBR2 (unknown origin) assessed as residual activity at 1000 nM by KINOMEscan analysis relative to control
[16] = system: Receptor-type tyrosine-protein kinase FLT3 (Homo sapiens), P36888 [D835H]; experiment: Inhibition of FLT3 D835H mutant (unknown origin) assessed as residual activity at 1000 nM by KINOMEscan analysis relative to control
[17] = molecular target: T2, Serine/threonine-protein kinase D1 (Homo sapiens) (UniProt Q15139); experiment: Inhibition of PRKD1 (unknown origin) assessed as residual activity at 1000 nM by KINOMEscan analysis relative to control
T2 sequence (whole entry): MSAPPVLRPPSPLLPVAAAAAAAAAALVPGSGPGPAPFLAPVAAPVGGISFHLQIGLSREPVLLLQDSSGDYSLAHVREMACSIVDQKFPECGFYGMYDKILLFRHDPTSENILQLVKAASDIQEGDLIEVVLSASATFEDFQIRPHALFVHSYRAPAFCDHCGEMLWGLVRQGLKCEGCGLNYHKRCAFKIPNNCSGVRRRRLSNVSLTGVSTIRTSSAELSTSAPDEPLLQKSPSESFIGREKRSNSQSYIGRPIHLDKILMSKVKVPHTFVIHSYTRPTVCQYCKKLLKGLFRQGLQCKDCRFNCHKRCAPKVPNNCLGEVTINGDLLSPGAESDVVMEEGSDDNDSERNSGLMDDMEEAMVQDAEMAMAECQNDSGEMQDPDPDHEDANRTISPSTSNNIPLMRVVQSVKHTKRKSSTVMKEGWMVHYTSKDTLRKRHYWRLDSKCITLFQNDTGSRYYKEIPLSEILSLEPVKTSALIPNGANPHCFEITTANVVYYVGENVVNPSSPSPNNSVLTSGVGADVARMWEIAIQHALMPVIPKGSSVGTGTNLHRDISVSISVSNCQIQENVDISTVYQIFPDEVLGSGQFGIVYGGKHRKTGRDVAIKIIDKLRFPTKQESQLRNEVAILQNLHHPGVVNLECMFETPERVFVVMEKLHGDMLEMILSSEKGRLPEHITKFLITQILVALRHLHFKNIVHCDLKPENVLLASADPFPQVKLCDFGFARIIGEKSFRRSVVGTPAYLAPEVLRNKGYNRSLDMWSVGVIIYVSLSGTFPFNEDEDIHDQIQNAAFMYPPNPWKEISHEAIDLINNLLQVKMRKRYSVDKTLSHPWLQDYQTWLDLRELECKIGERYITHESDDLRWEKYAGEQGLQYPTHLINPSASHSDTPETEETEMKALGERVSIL

Chain of Serine/threonine-protein kinase SIK1 (Homo sapiens) (P57059 whole entry): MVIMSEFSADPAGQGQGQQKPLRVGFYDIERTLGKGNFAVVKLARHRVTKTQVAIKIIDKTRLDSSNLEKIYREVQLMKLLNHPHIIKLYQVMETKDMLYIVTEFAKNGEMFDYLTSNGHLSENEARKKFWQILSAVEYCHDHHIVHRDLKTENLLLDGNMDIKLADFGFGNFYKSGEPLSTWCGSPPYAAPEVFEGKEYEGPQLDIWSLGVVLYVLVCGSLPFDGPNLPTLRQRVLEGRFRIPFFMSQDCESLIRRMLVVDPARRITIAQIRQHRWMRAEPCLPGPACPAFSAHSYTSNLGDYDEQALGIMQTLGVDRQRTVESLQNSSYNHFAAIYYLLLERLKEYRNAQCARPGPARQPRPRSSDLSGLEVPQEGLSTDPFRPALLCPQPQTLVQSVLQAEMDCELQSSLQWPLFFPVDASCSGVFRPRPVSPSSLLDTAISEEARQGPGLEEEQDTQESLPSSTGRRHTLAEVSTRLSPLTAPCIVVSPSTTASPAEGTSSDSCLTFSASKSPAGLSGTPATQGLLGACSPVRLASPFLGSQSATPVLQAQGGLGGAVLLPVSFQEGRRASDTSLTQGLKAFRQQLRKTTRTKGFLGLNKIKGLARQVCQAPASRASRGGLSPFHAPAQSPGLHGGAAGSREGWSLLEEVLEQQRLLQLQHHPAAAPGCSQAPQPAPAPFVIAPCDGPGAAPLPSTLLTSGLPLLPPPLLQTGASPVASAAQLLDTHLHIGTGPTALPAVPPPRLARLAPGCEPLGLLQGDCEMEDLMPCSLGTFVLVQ
Chain of Tyrosine-protein kinase CSK (Homo sapiens) (P41240 2-450 limits assumed): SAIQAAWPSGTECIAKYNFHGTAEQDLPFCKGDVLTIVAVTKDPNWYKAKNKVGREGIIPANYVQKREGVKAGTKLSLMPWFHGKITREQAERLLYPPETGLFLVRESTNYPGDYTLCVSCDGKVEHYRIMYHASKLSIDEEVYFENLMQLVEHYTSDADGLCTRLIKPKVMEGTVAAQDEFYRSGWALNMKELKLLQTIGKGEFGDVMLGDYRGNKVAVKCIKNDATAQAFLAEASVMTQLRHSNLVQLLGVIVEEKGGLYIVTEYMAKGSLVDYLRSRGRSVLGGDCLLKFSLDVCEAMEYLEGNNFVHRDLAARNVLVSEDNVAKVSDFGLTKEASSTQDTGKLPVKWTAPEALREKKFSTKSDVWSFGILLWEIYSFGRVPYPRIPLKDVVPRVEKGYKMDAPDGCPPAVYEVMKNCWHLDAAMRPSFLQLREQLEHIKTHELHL
Chain of Casein kinase I isoform delta (Homo sapiens) (P48730 whole entry, looked up, canonical isoform): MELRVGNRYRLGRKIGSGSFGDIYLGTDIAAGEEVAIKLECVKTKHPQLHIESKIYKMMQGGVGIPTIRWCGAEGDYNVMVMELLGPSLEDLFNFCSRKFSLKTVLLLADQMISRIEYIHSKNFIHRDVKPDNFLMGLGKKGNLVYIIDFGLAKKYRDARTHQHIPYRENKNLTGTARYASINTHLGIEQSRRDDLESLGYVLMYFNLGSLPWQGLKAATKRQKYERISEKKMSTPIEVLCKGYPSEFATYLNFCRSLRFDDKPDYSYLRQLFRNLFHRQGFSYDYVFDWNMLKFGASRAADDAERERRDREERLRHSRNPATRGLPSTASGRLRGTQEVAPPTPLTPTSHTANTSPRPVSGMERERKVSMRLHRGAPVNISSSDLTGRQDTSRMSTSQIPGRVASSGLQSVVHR
Chain of Maternal embryonic leucine zipper kinase (Homo sapiens) (Q14680 whole entry, looked up): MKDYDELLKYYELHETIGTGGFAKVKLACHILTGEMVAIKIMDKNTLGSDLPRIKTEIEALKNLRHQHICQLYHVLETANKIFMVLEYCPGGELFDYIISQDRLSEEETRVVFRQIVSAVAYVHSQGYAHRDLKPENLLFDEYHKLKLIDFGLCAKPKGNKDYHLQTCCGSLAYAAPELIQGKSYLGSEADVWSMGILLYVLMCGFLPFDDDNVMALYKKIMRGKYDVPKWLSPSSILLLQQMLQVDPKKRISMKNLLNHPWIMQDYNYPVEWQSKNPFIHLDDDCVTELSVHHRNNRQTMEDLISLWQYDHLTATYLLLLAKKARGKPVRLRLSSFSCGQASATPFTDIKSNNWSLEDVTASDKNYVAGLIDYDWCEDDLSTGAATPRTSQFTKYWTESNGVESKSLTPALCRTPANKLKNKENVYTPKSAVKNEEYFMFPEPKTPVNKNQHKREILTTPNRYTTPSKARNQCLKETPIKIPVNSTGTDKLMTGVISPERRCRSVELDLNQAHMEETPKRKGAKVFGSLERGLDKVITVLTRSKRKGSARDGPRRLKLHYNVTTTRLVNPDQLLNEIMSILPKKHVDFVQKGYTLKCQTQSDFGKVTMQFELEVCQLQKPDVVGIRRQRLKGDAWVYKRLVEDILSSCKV
Chain of Serine/threonine-protein kinase B-raf (Homo sapiens), P15056 [V600E] (P15056 whole entry V600E): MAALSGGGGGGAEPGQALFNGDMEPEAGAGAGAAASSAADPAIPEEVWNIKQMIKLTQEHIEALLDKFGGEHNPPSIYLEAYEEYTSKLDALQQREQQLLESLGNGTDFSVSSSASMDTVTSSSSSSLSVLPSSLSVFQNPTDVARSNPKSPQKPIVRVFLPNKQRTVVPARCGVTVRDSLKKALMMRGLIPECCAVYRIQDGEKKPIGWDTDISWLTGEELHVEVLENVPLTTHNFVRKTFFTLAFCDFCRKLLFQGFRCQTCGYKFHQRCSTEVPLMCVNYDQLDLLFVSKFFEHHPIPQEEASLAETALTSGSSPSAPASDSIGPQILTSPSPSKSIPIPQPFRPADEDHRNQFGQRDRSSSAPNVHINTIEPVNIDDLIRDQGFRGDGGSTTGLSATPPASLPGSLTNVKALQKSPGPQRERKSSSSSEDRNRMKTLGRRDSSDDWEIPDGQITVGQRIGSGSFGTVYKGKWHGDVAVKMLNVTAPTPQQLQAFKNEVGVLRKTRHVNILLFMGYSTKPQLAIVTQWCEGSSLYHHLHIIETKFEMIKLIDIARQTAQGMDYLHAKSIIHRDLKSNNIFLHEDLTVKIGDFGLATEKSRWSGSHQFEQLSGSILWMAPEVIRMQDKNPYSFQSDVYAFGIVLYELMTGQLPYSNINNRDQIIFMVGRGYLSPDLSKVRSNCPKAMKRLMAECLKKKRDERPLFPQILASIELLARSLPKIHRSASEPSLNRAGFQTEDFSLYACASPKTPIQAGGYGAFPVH
Chain of Serine/threonine-protein kinase N1 (Homo sapiens) (Q16512 2-942 limits assumed): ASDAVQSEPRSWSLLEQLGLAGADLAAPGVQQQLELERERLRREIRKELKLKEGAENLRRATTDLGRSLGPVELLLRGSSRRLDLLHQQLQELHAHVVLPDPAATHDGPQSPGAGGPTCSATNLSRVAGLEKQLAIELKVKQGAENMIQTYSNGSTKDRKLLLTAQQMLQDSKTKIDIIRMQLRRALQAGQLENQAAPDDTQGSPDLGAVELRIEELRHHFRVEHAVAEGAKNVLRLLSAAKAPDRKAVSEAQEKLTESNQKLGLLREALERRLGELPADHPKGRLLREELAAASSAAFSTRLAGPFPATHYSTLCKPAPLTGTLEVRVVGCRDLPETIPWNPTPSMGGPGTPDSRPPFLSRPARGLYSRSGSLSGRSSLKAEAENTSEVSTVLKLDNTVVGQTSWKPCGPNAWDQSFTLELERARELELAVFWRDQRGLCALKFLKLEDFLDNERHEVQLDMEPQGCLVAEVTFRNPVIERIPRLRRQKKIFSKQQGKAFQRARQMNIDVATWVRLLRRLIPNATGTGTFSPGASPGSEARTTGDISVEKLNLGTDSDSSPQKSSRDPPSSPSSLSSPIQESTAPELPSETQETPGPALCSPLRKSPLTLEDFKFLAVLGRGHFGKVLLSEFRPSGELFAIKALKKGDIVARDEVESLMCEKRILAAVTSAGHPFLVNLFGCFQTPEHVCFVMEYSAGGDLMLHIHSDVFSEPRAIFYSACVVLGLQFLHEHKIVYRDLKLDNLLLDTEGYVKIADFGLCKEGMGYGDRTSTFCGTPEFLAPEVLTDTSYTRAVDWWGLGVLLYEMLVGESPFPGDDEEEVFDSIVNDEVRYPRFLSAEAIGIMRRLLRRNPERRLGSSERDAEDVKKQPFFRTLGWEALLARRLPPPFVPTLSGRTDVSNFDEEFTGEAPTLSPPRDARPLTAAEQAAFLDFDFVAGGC
Chain of Protein kinase C eta type (Homo sapiens) (P24723 whole entry): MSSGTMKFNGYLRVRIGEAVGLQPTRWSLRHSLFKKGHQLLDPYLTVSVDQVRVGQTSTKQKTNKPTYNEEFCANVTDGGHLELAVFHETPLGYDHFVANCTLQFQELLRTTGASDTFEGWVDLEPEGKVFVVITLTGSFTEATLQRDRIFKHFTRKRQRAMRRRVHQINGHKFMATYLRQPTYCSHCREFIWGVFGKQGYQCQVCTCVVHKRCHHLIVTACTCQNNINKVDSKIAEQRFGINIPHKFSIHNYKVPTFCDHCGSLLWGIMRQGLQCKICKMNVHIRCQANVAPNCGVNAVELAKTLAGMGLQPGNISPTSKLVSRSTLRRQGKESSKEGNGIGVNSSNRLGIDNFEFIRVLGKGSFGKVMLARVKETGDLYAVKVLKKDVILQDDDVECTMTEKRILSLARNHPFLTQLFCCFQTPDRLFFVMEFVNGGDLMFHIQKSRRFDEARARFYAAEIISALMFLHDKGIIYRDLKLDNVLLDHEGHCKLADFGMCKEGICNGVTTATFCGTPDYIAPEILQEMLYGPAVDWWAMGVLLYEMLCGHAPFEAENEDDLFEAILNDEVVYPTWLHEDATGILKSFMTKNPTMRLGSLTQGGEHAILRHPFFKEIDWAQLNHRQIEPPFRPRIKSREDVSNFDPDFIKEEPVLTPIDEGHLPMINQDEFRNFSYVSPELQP

Q: `COc1cc2ncnc(N[C@H](C)c3cccc4ccccc34)c2cc1OC` was tested. Which Activity [1] did it give?
A: Its Activity is 100%.

Q: What about the Activity [2] of the same compound?
A: The Activity was 91%.

Q: What about the Activity [3] of the same compound?
A: Its Activity is 87%.

Q: And the Activity [4]?
A: The Activity was 96%.

Q: And the Activity [5]?
A: The Activity was 95%.

Q: And the Activity [6]?
A: Its Activity is 83%.

Q: What about the Activity [7] of the same compound?
A: The Activity was 100%.

Q: And the Activity [8]?
A: Its Activity is 97%.

Q: What about the Activity [9] of the same compound?
A: The Activity was 100%.

Q: And the Activity [10]?
A: Its Activity is 97%.

Q: And the Activity [11]?
A: Its Activity is 87%.

Q: What about the Activity [12] of the same compound?
A: Its Activity is 100%.

Q: And the Activity [13]?
A: The Activity was 98%.

Q: And the Activity [14]?
A: The Activity was 71%.

Q: And the Activity [15]?
A: Its Activity is 100%.

Q: What about the Activity [16] of the same compound?
A: Its Activity is 96%.

Q: And the Activity [17]?
A: The Activity was 95%.

Q: For `COc1cc2nc(C)nc(N[C@H](C)c3cccc(-c4cn[nH]c4)c3)c2cc1OC`, which Activity [1] is on record?
A: The Activity was 73%.

Q: And the Activity [2]?
A: Its Activity is 72%.

Q: And the Activity [3]?
A: Its Activity is 100%.

Q: What about the Activity [4] of the same compound?
A: Its Activity is 89%.

Q: And the Activity [5]?
A: The Activity was 100%.

Q: What about the Activity [6] of the same compound?
A: The Activity was 88%.

Q: And the Activity [7]?
A: Its Activity is 78%.

Q: And the Activity [8]?
A: The Activity was 100%.

Q: What about the Activity [9] of the same compound?
A: The Activity was 95%.

Q: What about the Activity [10] of the same compound?
A: Its Activity is 65%.

Q: And the Activity [11]?
A: The Activity was 93%.

Q: And the Activity [12]?
A: The Activity was 99%.

Q: What about the Activity [13] of the same compound?
A: Its Activity is 65%.

Q: What about the Activity [14] of the same compound?
A: Its Activity is 91%.

Q: And the Activity [15]?
A: The Activity was 93%.

Q: And the Activity [16]?
A: Its Activity is 100%.

Q: And the Activity [17]?
A: The Activity was 85%.
